No end group written: not given here.
Key:
[1] = test system: asymmetrical arginine methylation of NSC-34 cells; experiment: Cellular asymmetric arginine methylation (800/700 fluorescence readout) in NSC-34 cells; type: cell-based, Mouse
Procedure: On Day 0, NSC-34 Cells were plated in 48 wells of a 96 well plate, and CHO cells were plated in the other 48 wells of the same 96-well plate. NSC-34 cells were plated in DMEM/High glucose media. CHO cells were plated in Ham's F-12K (Kaighn's) Medium. Both cell lines were incubated overnight to reach approximately 50% confluency.
On Day 1, 24 wells of the NSC-34 cells and 24 wells of the CHO cells were treated with the following concentrations of MS023: 1 μM, 3 μM, 6 μM, 10 μM, 30 μM, and 60 μM. The cells were then incubated overnight.
On Day 2, 18 wells of the untreated NSC-34 cells and 18 wells of the untreated CHO cells were treated with the same concentrations of MS023 as those on Day 1. This left 6 wells of each cell line that never received MS023. Once MS023 was added, the cells were incubated overnight.
On Day 3, all media in the 96-well plate was removed and the cells were fixed with 3.7% Paraformaldehyde (PFA). Cells were then washed and permeabilized with 1×PBS/0.1% Triton X-100.
After removing the PBS/Triton wash, Odyssey Blocking Buffer (LI-COR, 927-40100) was applied to all wells and the plate sat at room temperature with moderate shaking for 90 minutes. After 90 minutes, the blocking buffer was removed and the cells were treated with a 1:500 dilution of the Anti-Asymmetric Di-Methyl Arginine Motif primary antibody (Cell Signaling Technology, #13522). Incubation with the primary antibody continued overnight at 4 degrees Celsius with no shaking.
On Day 4, the primary antibody solution was removed from the plate, and the cells were washed with 1×PBS/0.1% Tween 20. After washing, cells were given a secondary antibody mixture containing a 1:1000 dilution of IRDye 800 CW Anti-Rabbit antibody (LI-COR, 926-32211) and a 1:500 dilution of Cell Tag 700 Stain (LI-COR, 926-41090). The secondary antibody mixture remained on cells for 60 minutes with gentle shaking and protected from light.
(§1) After 60 minutes, the secondary antibody mixture was removed and the cells were again washed with 1×PBS/0.1% Tween 20. All wash buffer was then removed, and the plate was gently patted dry to remove excess solution. The plate was then read on the LI-COR Odyssey Classic Imaging System which provides results based on fluorescence. In this experiment, fluorescence occurred as a result of cellular, asymmetric arginine methylation. MS023 was given to cells for either 24 or 48 hours, with expectation for it to reduce cellular, asymmetric arginine methylation. Cell number per well was accounted for using the Cell Tag 700 Stain, which fluorescently labels total protein levels in a cell. To this effect, fluorescence from asymmetrical arginine methylation per well (800) was divided by fluorescence from the total protein level per well (700) to produce an outcome of 800/700.
On Day 1, 24 wells of the NSC-34 cells and 24 wells of the CHO cells were treated with the following concentrations of MS049: 0.2 μM, 1 μM, 2 μM, 10 μM, 20 μM, and 100 μM. The cells were then incubated overnight.
On Day 2, 18 wells of the untreated NSC-34 cells and 18 wells of the untreated CHO cells were treated with the same concentrations of MS049 as those on Day 1. This left 6 wells of each cell line that never received MS049. Once MS049 was added, the cells were incubated overnight.
as §1, with “MS049” for “MS023”, “To this effect, fluorescence from asymmetrical arginine methylation per well (800) was divided by fluorescence from the total protein level per well (700) to produce an outcome of 800/700.” left out

[2] = molecular target: T1, Recombinant PRMT1 protein (Homo sapiens, UniProt Q99873); experiment: In-vitro arginine methylation assay with recombinant PRMT1 and SAM; type: biochemical; details: 37 degrees Celsius, 2 hours, no methylation without PRMT1 or SAM
T1 construct: purchased Active Motif 31411
Procedure: To assess interaction between PRMT1 and GR15, (SEQ ID NO: 1) an in-vitro methylation assay system was developed. This system consists of a mixture of recombinant PRMT1 enzyme, S-(5′-Adenosyl)-L-methionine iodide, (SAM) as a methyl donor, and potential substrate of PRMT1 activity. For this experiment, 11 tubes were prepared, each containing various amount of the following components; • Recombinant PRMT1 protein (Active Motif, Cat. 31411) • S-(5′-Adenosyl)-L-methionine iodide, (SAM) (Sigma-Aldrich Cat. A4377) • GR15(SEQ ID NO: 1) • PR15(SEQ ID NO: 2) • SOD1 from human erythrocytes (S9636-1KU)
These constituents were mixed in a 0.5 ml flat-capped tubes (Thermo Fisher Scientific, AB0350) according to Table 4 (all values are in microliters (μl)).
Once all tubes were prepared, each tube was gently tapped to ensure mixture, and the tubes were placed in an incubator at 37 degrees Celsius for 2 hours. After 2 hours, the reaction mixture was stopped with the addition of 10 μl of NuPage LDS Sample Buffer (Thermo Fisher Scientific, NP0007). The tubes were gently tapped to ensure mixture, and then boiled for 5 minutes in a 95 degrees Celsius water bath. […]
The gel was then transferred using the iBlot apparatus and an iBlot 2 Nitrocellulose Mini Stack (Thermo Fisher Scientific, IB23002). […] Following wash steps, the membrane was read on the LI-COR Odyssey Classic Imaging System.

T1 sequence (Q99873 whole entry): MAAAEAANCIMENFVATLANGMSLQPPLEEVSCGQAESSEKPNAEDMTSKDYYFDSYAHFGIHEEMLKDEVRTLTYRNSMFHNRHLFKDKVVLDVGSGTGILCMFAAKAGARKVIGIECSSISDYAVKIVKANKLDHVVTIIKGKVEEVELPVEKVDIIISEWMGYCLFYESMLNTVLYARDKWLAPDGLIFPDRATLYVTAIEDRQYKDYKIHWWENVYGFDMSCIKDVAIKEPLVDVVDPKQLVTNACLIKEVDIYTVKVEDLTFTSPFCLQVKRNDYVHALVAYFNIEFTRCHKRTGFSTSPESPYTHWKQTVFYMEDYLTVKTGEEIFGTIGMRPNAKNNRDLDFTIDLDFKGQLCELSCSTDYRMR

Q: Which results are given for CC(C)Oc1ccc(-c2c[nH]cc2CN(C)CCN)cc1 [MS023]?
A: decrease of asymmetrical arginine methylation ([1]; 24 hour treatment, 1 μM, vs untreated cells): approximately 13%; decrease of asymmetrical arginine methylation ([1]; 24 hour treatment, 60 μM): ~45%; decrease of asymmetrical arginine methylation ([1]; 48 hour treatment, 1 μM): ~33%; decrease of asymmetrical arginine methylation ([1]; 48 hour treatment, 60 μM): ~75%

Q: For GRGRGRGRGRGRGRGRGRGRGRGRGRGRGR [GR15], which “asymmetric methylation of the peptide as substrate (anti-H4R3me2a detection)” value [2] is on record?
A: The value was “is asymmetrically methylated by PRMT1”.
